Here are results for three molecules from publication PMC8334341 (Acta Pharmacologica Sinica, 2021).

Assay [1] concerns the target RBD domain of S protein of SARS-CoV-2 (Severe acute respiratory syndrome coronavirus 2, UniProt P0DTC2). Description: biochemical. In kind it is binding.
Assay [2] deals with binding interactions between RBD and ACE2 (Homo sapiens, UniProt Q9BYF1). More on the design: species or system SARS-CoV-2.
Another assay relates to ACE2. The conditions noted are these: read-out: IC50 (ACE2 inhibitor); cited from earlier work.

Chain of binding interactions between RBD and ACE2 (Q9BYF1 whole entry, looked up): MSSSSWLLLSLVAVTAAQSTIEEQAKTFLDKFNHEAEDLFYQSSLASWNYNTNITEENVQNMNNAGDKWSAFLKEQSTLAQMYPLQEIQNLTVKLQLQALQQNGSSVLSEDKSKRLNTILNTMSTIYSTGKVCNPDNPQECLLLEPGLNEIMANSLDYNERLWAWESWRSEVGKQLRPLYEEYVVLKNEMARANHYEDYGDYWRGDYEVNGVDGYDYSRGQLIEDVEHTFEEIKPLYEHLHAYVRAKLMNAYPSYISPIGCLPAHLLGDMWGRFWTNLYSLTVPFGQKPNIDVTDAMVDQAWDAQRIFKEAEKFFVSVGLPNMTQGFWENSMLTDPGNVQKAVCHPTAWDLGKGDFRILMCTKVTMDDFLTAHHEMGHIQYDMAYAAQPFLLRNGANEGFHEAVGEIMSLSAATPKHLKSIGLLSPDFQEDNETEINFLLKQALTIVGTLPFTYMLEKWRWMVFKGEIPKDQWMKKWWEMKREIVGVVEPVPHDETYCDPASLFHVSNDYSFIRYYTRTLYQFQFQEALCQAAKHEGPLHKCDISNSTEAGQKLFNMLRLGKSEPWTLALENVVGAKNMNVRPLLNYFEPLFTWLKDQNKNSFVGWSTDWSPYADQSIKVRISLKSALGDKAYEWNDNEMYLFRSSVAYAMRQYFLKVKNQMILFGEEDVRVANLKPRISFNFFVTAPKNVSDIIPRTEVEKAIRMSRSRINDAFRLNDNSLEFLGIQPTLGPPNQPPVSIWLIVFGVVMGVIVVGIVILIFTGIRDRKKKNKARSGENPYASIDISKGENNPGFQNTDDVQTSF

Take `C=C[C@@H]1C2=CCOC(=O)C2=CO[C@H]1O[C@@H]1O[C@H](CO)[C@@H](O)[C@H](O)[C@H]1O` [GTCP, Gentiopicrin]: binding in assay [1] was characterised by a dissociation constant (Kd) of 29.6 µM.
For `CC(C)C[C@H](N[C@@H](Cc1cncn1Cc1cc(Cl)cc(Cl)c1)C(=O)O)C(=O)O` [MLN-4760], the “effect on the binding affinity between RBD and ACE2” value in assay [2] is “negligible effect”. For the same molecule, the IC50 with ACE2 is 0.00044 µM.
Molecule `Nc1ncnc2c1ncn2[C@@H]1O[C@H](CO)C[C@H]1O` [CDCP, Cordycepin] returned a Kd in assay [1] of 20.5 µM. In other words, the double-digit micromolar range.

The term Kd denotes the constant that tells how readily two partners part at equilibrium. A higher Kd goes with lower affinity. The term IC50 denotes the concentration needed to halve the response being measured.
